Test results published in US9303042B2, “Triazolothienopyrimidine compound inhibitors of urea transporters and methods of using inhibitors” (The Regents of the University of California, priority 2012, dated 2016).
Like-named read-outs stand apart in the source and are kept apart here.

Experiments:
UT-B = molecular target: T1, UT-B (Mus musculus, UniProt Q8VHL0); assay: Erythrocyte lysis assay of UT-B inhibition; format: cell-based; parameters: Screening was performed using mouse erythrocytes, which strongly express UT-B; endogenous in cells; host or cells: erythrocytes in whole blood of wild-type CD1 mice; details: read-out: IC50
T1 sequence (Q8VHL0 1-384): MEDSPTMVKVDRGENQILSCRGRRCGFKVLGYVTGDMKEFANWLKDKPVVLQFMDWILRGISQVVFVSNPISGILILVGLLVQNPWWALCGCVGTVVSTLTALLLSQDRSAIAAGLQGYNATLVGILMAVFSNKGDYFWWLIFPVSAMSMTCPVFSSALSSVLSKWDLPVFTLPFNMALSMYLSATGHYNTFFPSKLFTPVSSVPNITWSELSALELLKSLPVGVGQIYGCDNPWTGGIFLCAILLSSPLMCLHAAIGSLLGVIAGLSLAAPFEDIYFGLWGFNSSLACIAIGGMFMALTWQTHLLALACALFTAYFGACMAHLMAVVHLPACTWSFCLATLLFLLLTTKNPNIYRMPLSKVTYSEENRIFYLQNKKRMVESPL
Protocol: Screening was performed using mouse erythrocytes, which strongly express UT-B and are highly water permeable because the cells also express aquaporin-1 (AQP1) water channels. The screening method involved assay of erythrocyte lysis in response to a large, outwardly directed gradient of acetamide, a urea analog that is transported efficiently by UT-B. A large, outwardly directed gradient of acetamide causes transient cell swelling, but little cell lysis, because UT-B-facilitated acetamide efflux limits water influx (see FIG. 1A). UT-B inhibition prevents acetamide efflux, allowing unopposed cell swelling and consequent cell lysis, which was recorded by reduced near-infrared light absorption at 710 nm.
Primary screening was done using a collection of 100,000 diverse, drug-like compounds from commercial sources (ChemDiv, San Diego, Calif.; Asinex, Winston-Salem, N.C.). […] Vigorous mixing was achieved by repeated pipetting. Erythrocyte lysis was quantified by absorbance at 710 nm wavelength, made within 5 min after hypo-osmolar shock. […] For analysis of structure-activity relationships >900 commercially available analogs (ChemDiv and Asinex) were tested.

[1] = In vitro metabolic stability in hepatic microsomes; format: in vitro ADME, rat; details: for % Remaining after 10 min incubation with liver microsomes: NADPH, compound 5 μM; for % Remaining: parent molecule after 30 min incubation with rat liver microsomes; for metabolic stability (in words): hepatic microsomes
Protocol: Compounds, each at 5 μM, were incubated for specified times at 37° C. with rat liver microsomes (1 mg protein/ml; Sigma-Aldrich, St. Louis, Mo.) in potassium phosphate buffer (100 mM) containing 1 mM NADPH. The mixture was then chilled on ice, and 0.5 ml of ice-cold ethyl acetate was added.

[2] = Table 1, commercially available analogues, erythrocyte lysis assay
[3] = Table 2, synthesized inhibitors, red blood cell lysis assay (n = 3), single-site saturation model

COCCNc1nc2c(S(=O)(=O)c3cc(C)ccc3C)nnn2c2ccsc12 [Compound 2co, {3-[2,5-dimethyl-benzenesulfonyl]-thieno[2,3-e][1,2,3]triazolo[1,5-a]pyrimidin-5-yl}-2-methoxyethyl-amine]
IC50 (UT-B; [2]): 1190 nM | % Remaining after 10 min incubation with liver microsomes [1]: 29%

Cc1ccc(S(=O)(=O)c2nnn3c2nc(NCCC(C)C)c2sccc23)cc1C [Compound 2au]
IC50 (UT-B; [2]): 854 nM | % Remaining after 10 min incubation with liver microsomes [1]: 35%

Cc1ccc(S(=O)(=O)c2nnn3c2nc(N2CCOCC2)c2sccc23)cc1C [Compound 2an]
IC50 (UT-B; [2]): 1710 nM | % Remaining after 10 min incubation with liver microsomes [1]: 6%

O=S(=O)(c1ccc(F)cc1)c1nnn2c1nc(NCc1cccs1)c1sccc12 [Compound 3h, [3-(4-Fluoro-benzenesulfonyl)-thieno[2,3-e][1,2,3]triazolo[1,5-a]pyrimidin-5-yl]-thiophen-2-ylmethyl-amine]
IC50 (UT-B; [3]): 468 nM | % Remaining [1]: 27%

O=S(=O)(c1ccc(Cl)cc1)c1nnn2c1nc(NCc1cccs1)c1sccc12 [Compound 2bi, {3-[4-chloro-benzenesulfonyl]-thieno[2,3-e][1,2,3]triazolo[1,5-a]pyrimidin-5-yl}-thiophen-2-ylmethyl-amine]
IC50 (UT-B; [2]): 214 nM | % Remaining after 10 min incubation with liver microsomes [1]: 52%

O=S(=O)(c1cccs1)c1nnn2c1nc(NCc1cccs1)c1sccc12 [Compound 3g, [3-(Thiophene-2-sulfonyl)-thieno[2,3-e][1,2,3]triazolo[1,5-a]pyrimidin-5-yl]-thiophen-2-ylmethyl-amine]
IC50 (UT-B; [3]): 196 nM | % Remaining [1]: <5%

COc1ccc(CNc2nc3c(S(=O)(=O)c4ccc(C(C)C)cc4)nnn3c3ccsc23)cc1 [Compound 3e, [3-(4-Isopropyl-benzenesulfonyl)-thieno[2,3-e][1,2,3]triazolo[1,5-a]pyrimidin-5-yl]-(4-methoxy-benzyl)-amine]
IC50 (UT-B; [3]): 5290 nM | % Remaining [1]: 7%

CCc1ccc(S(=O)(=O)c2nnn3c2nc(NCc2ccco2)c2sccc23)cc1 [Compound 2bp, furan-2-ylmethyl-[3-(4-ethyl-benzenesulfonyl)-thieno[2,3-e][1,2,3]triazolo[1,5-a]pyrimidin-5-yl]-amine]
IC50 (UT-B; erythrocyte lysis assay): 239 nM | % Remaining after 10 min incubation with liver microsomes [1]: 12%

CC(C)c1ccc(S(=O)(=O)c2nnn3c2nc(NCc2ccco2)c2sccc23)cc1 [Compound 3b, Furan-2-ylmethyl-[3-(4-isopropyl-benzenesulfonyl)-thieno[2,3-e][1,2,3]triazolo[1,5-a]pyrimidin-5-yl]-amine]
IC50 (UT-B; [3]): 16600 nM | % Remaining [1]: >99%

O=S(=O)(c1ccc(OC(F)(F)F)cc1)c1nnn2c1nc(NCc1cccs1)c1sccc12 [Compound 3d, Thiophen-2-ylmethyl-[3-(4-trifluoromethoxy-benzenesulfonyl)-thieno[2,3-e][1,2,3]triazolo[1,5-a]pyrimidin-5-yl]-amine]
IC50 (UT-B; [3]): 1120 nM | metabolic stability (in words) [1]: improved metabolic stability | % Remaining [1]: 95%

Cc1ccc(S(=O)(=O)c2nnn3c2nc(NCc2ccco2)c2sccc23)cc1C [Compound 2am, furan-2-ylmethyl-[3-(3,4-dimethyl-benzenesulfonyl)-thieno[2,3-e][1,2,3]triazolo[1,5-a]pyrimidin-5-yl]-amine]
IC50 (UT-B; [2]): 156 nM | % Remaining after 10 min incubation with liver microsomes [1]: <2%

Cc1ccc(S(=O)(=O)c2nnn3c2nc(NCc2ccccc2)c2sccc23)cc1C [Compound 2ao, [3-(3,4-dimethyl-benzenesulfonyl)-thieno[2,3-e][1,2,3]triazolo[1,5-a]pyrimidin-5-yl]-benzyl-amine]
IC50 (UT-B; [2]): 1000 nM | % Remaining after 10 min incubation with liver microsomes [1]: 3%

CCc1ccc(S(=O)(=O)c2nnn3c2nc(NCCCOC)c2sccc23)cc1 [Compound 2cb, {3-[4-ethyl-benzenesulfonyl]-thieno[2,3-e][1,2,3]triazolo[1,5-a]pyrimidin-5-yl}-3-methoxypropyl-amine]
IC50 (UT-B; erythrocyte lysis assay): 212 nM | % Remaining after 10 min incubation with liver microsomes [1]: <2%

CCOCCCNc1nc2c(S(=O)(=O)c3ccc(C)c(C)c3)nnn2c2ccsc12 [Compound 2aw, {3-[3,4-dimethyl-benzenesulfonyl]-thieno[2,3-e][1,2,3]triazolo[1,5-a]pyrimidin-5-yl}-3-ethoxylpropyl-amine]
IC50 (UT-B; [2]): 520 nM | % Remaining after 10 min incubation with liver microsomes [1]: 2%

Cc1ccc(S(=O)(=O)c2nnn3c2nc(NCc2ccc(Cl)cc2)c2sccc23)cc1C [Compound 2bc, [3-(3,4-dimethyl-benzenesulfonyl)-thieno[2,3-e][1,2,3]triazolo[1,5-a]pyrimidin-5-yl]-(4-chloro-benzyl)-amine]
IC50 (UT-B; [2]): 582 nM | % Remaining after 10 min incubation with liver microsomes [1]: 83% | metabolic stability (in words) [1]: improved metabolic stability

COc1ccc(CNc2nc3c(S(=O)(=O)c4ccc(C)cc4)nnn3c3ccsc23)cc1 [Compound 2ad, [3-(4-methyl-benzenesulfonyl)-thieno[2,3-e][1,2,3]triazolo[1,5-a]pyrimidin-5-yl]-(4-methoxy-benzyl)-amine]
IC50 (UT-B; [2]): 1660 nM | % Remaining after 10 min incubation with liver microsomes [1]: 80% | metabolic stability (in words) [1]: improved metabolic stability

COc1ccc(CNc2nc3c(S(=O)(=O)c4ccc(C)c(C)c4)nnn3c3ccsc23)cc1 [Compound 2at, [3-(3,4-dimethyl-benzenesulfonyl)-thieno[2,3-e][1,2,3]triazolo[1,5-a]pyrimidin-5-yl]-(4-methoxy-benzyl)-amine]
IC50 (UT-B; [2]): 1540 nM | % Remaining after 10 min incubation with liver microsomes [1]: 12%

CCCCNc1nc2c(S(=O)(=O)c3ccc(Cl)cc3)nnn2c2ccsc12 [Compound 2bg]
IC50 (UT-B; [2]): 1260 nM | % Remaining after 10 min incubation with liver microsomes [1]: 74%

CCc1ccc(S(=O)(=O)c2nnn3c2nc(NC(C)c2ccccc2)c2sccc23)cc1 (stereo not drawn) [Compound 2bw, [3-(4-ethyl-benzenesulfonyl)-thieno[2,3-e][1,2,3]triazolo[1,5-a]pyrimidin-5-yl]-(1-phenyl-1-methyl)methyl-amine]
IC50 (UT-B; [2]): 585 nM | % Remaining after 10 min incubation with liver microsomes [1]: 34%

Cc1ccc(S(=O)(=O)c2nnn3c2nc(N2CCCCC2)c2sccc23)cc1C [Compound 2az]
IC50 (UT-B; [2]): 1760 nM | % Remaining after 10 min incubation with liver microsomes [1]: <2%

CCc1ccc(S(=O)(=O)c2nnn3c2nc(NC(C)C)c2sccc23)cc1 [Compound 2ce]
IC50 (UT-B; [2]): 948 nM | % Remaining after 10 min incubation with liver microsomes [1]: 4%

Cc1ccc(C)c(S(=O)(=O)c2nnn3c2nc(NCCC(C)C)c2sccc23)c1 [Compound 2cj]
IC50 (UT-B; [2]): 1450 nM | % Remaining after 10 min incubation with liver microsomes [1]: 61%

COCCNc1nc2c(S(=O)(=O)c3ccc(C(C)C)cc3)nnn2c2ccsc12 [Compound 2bo, {3-[4-isopropyl-benzenesulfonyl]-thieno[2,3-e][1,2,3]triazolo[1,5-a]pyrimidin-5-yl}-2-methoxyethyl-amine]
IC50 (UT-B; [2]): 711 nM | % Remaining after 10 min incubation with liver microsomes [1]: 14%

COc1ccccc1CNc1nc2c(S(=O)(=O)c3ccc(C)c(C)c3)nnn2c2ccsc12 [Compound 2as, [3-(3,4-dimethyl-benzenesulfonyl)-thieno[2,3-e][1,2,3]triazolo[1,5-a]pyrimidin-5-yl]-(2-methoxy-benzyl)-amine]
IC50 (UT-B; [2]): 1040 nM | % Remaining after 10 min incubation with liver microsomes [1]: 15%

CCc1ccc(S(=O)(=O)c2nnn3c2nc(NCc2ccccc2)c2sccc23)cc1 [Compound 2br, [3-(4-ethyl-benzenesulfonyl)-thieno[2,3-e][1,2,3]triazolo[1,5-a]pyrimidin-5-yl]-benzyl-amine]
IC50 (UT-B; [2]): 664 nM | % Remaining after 10 min incubation with liver microsomes [1]: 44%

CCc1ccc(S(=O)(=O)c2nnn3c2nc(NCCCOC(C)C)c2sccc23)cc1 [Compound 2cf, {3-[4-ethyl-benzenesulfonyl]-thieno[2,3-e][1,2,3]triazolo[1,5-a]pyrimidin-5-yl}-3-(1-methylethoxyl)propyl-amine]
IC50 (UT-B; [2]): 433 nM | % Remaining after 10 min incubation with liver microsomes [1]: <2%

CCCCNc1nc2c(S(=O)(=O)c3cc(C)ccc3C)nnn2c2ccsc12 [Compound 2cn]
IC50 (UT-B; [2]): 865 nM | % Remaining after 10 min incubation with liver microsomes [1]: 57%

COc1ccc(S(=O)(=O)c2nnn3c2nc(NCc2cccs2)c2sccc23)cc1 [Compound 3f, [3-(4-Methoxy-benzenesulfonyl)-thieno[2,3-e][1,2,3]triazolo[1,5-a]pyrimidin-5-yl]-thiophen-2-ylmethyl-amine]
IC50 (UT-B; [3]): 104 nM | % Remaining [1]: 6%

COCCNc1nc2c(S(=O)(=O)c3ccc(Br)cc3)nnn2c2ccsc12 [Compound 2ct]
IC50 (UT-B; [2]): 959 nM | % Remaining after 10 min incubation with liver microsomes [1]: 53%

CCc1ccc(S(=O)(=O)c2nnn3c2nc(NCCCN2CCCC2=O)c2sccc23)cc1 [Compound 2cg]
IC50 (UT-B; [2]): 1500 nM | % Remaining after 10 min incubation with liver microsomes [1]: 2%
